Where two headings read alike, the source gives them in different places.
Experiments:
[1] = Rm: lipophilic-hydrophilic balance from reversed phase partition chromatography; format: physicochemical; conditions: linearly related to 1-octanol/water partition coefficients
From the text: Rm-a measure of the compound's liphophilic-hydrophilic balance from reversed phase partition chromatography. Rm is linearly related to partition coefficients obtained in the 1-octanol/water system.

L1210 leukemia cells = test: Growth inhibition of cultured L1210 leukemia cells (70 h, counted cell numbers); format: cell-based; conditions: Mus musculus
P388 leukemia = test: In vivo antitumour activity against P388 leukemia (cells inoculated intraperitoneally); parameters: species or system mice (F1 hybrids of DBA/2J male x C57BL/6J female); conditions: for P388 in vivo ILS (percentage increase in lifespan) / P388 in vivo Active: P388 leukemia; for P388 in vivo ILS (percentage increase in lifespan): at optimal dose (OD), intraperitoneal, days 1, 5 and 9, control survival 11 days; for P388 in vivo Active: at the stated dose, ILS greater than 20% significant; for P388 in vivo number of long-term survivors: number in parentheses after ILS, out of a group of 6, P388 leukemia
Method: (§1) OD--The optimal drug dose (in milligrams per kilogram), administered intraperitoneally as a solution in 0.1 ml of 30% v/v ethyl alcohol in water on days 1, 5 and 9 after tumour inoculation. The drug is administered as a soluble acid addition salt.
(§2) ILSmax--The percentage increase in lifespan of treated animals over that of control animals injected with tumour alone. The average survival of control mice was 11 days (for P388 leukemia) and 17 days (for Lewis lung carcinoma) ILS values greater than 20% (P388 leukemia) and 40% (Lewis lung carcinoma) are considered statistically significant. Numbers in parentheses after ILS values indicate the number of long-term survivors (out of a group of 6).
(§3) Y--Implies a significant value of drug activity at the stated dose.
(§4) N--Implies no statistically significant activity.
(§5) Both of these tumour lines were obtained as frozen cell stocks from Mason Research Inc., USA and are passaged intraperitoneally in DBA/25 mice of either sex (P388) or subcutaneously in C57BL/65 mice of either sex (LL) according to the standard methods (Cancer Chemother. Reports., 3, Part 3, p9, 1972).
(§6) Groups of six mice (F1 hybrids of DBA/2J male x C57BL/6J female) were injected intraperitoneally (P388) or intravenously (tail vein, LL), with 10^6 tumour cells on day 0. When given in this manner, P388 cells grow diffusely in the peritoneal cavity, whereas the Lewis lung cells from distinct solid tumour nodules in the lungs. Antitumour activity is determined by published methods (European J. Cancer, 19, pp.1607-1613, 1983).

Lewis lung carcinoma = test: In vivo antitumour activity against Lewis lung carcinoma (cells inoculated intravenously); parameters: species or system mice (F1 hybrids of DBA/2J male x C57BL/6J female); conditions: for LL in vivo ILS (percentage increase in lifespan) / LL in vivo Active: Lewis lung carcinoma; for LL in vivo ILS (percentage increase in lifespan): at optimal dose (OD), intraperitoneal, days 1, 5 and 9, control survival 17 days; for LL in vivo Active: at the stated dose, ILS greater than 40% significant; for LL in vivo number of long-term survivors: number in parentheses after ILS, out of a group of 6, Lewis lung carcinoma
Method: as §1, §2, §3, §4
LL--Is the Lewis lung carcinoma.
as §5, §6

bacterial cell lines = test: In vitro antibacterial activity; format: cell-based; conditions: a number of bacterial cell lines
[2] = L1210 leukemia cells, 70 h, cell numbers reduced to 50% of controls, read-out: In vitro L1210 (IC50)

chromatographic logP [1]	IC50 (L1210 leukemia cells; [2])	IC50 (L1210 leukemia cells; L1210 leukemia cells, 70 h, cell numbers reduced to 50% of controls, read-out: In vitro L1210 (IC50), cell printed with unit nm)	Structure (SMILES)	IC50 (L1210 leukemia cells; L1210, 70 h, read-out: In vitro L1210 (IC50))	P388 in vivo ILS (percentage increase in lifespan) (P388 leukemia)	P388 in vivo Active (P388 leukemia)	LL in vivo ILS (percentage increase in lifespan) (Lewis lung carcinoma)	LL in vivo Active (Lewis lung carcinoma)	LL in vivo number of long-term survivors (Lewis lung carcinoma)	antibacterial activity (bacterial cell lines)	P388 in vivo number of long-term survivors (P388 leukemia)
0.06	1.14 µM		CN(C)CCCNC(=O)c1cccc2ccc(-c3ccccc3)nc12 [Compound 2]		71%	Y (Implies a significant value of drug activity at the stated dose)	< 40%	N (Implies no statistically significant activity)			
0.21	1.3 µM		CN(C)CCCCCNC(=O)c1cccc2ccc(-c3ccccc3)nc12 [Compound 4]		< 20%	N (Implies no statistically significant activity)	< 40%	N (Implies no statistically significant activity)			
0.15	8.1 µM		CN(C)CCNC(=O)c1cccc2ccc(-c3ccccc3Cl)nc12 [Compound 8]		< 20%	N (Implies no statistically significant activity)					
0.05	1.2 µM		CN(C)CCNC(=O)c1cccc2ccc(-c3cccc(Cl)c3)nc12 [Compound 10]		40%	Y (Implies a significant value of drug activity at the stated dose)	< 40%	N (Implies no statistically significant activity)			
	0.86 µM		COc1cccc(-c2ccc3cccc(C(=O)NCCN(C)C)c3n2)c1 [Compound 11]		46%	Y (Implies a significant value of drug activity at the stated dose)					
	0.6 µM		CN(C)CCNC(=O)c1cccc2ccc(-c3ccc(Br)cc3)nc12 [Compound 15]		72%	Y (Implies a significant value of drug activity at the stated dose)					
	1.29 µM		CN(C)CCNC(=O)c1cccc2ccc(-c3ccc(-c4ccccc4)cc3)nc12 [Compound 17]		< 20%	N (Implies no statistically significant activity)					
-0.16		1.29 µM	COc1ccc(-c2ccc3cccc(C(=O)NCCN(C)C)c3n2)cc1 [Compound 18]		42%	Y (Implies a significant value of drug activity at the stated dose)					
-0.33	0.027 µM		CN(C)CCNC(=O)c1cccc2ccc(-c3ccc(O)cc3)nc12 [Compound 19]		22%	Y (Implies a significant value of drug activity at the stated dose)					
-0.18	0.29 µM		CN(C)CCNC(=O)c1cccc2ccc(-c3ccc([N+](=O)[O-])cc3)nc12 [Compound 20]		71%	Y (Implies a significant value of drug activity at the stated dose)	85%	Y (Implies a significant value of drug activity at the stated dose)			
-0.76	0.2 µM		CN(C)CCNC(=O)c1cccc2ccc(-c3ccc(N)cc3)nc12 [Compound 21]		28%	Y (Implies a significant value of drug activity at the stated dose)	65%	Y (Implies a significant value of drug activity at the stated dose)			
	0.74 µM		CC(=O)Nc1ccc(-c2ccc3cccc(C(=O)NCCN(C)C)c3n2)cc1 [Compound 22]		< 20%	N (Implies no statistically significant activity)					
-0.38	1.33 µM		CN(C)CCNC(=O)c1cccc2ccc(-c3ccc(NS(C)(=O)=O)cc3)nc12 [Compound 23]		< 20%	N (Implies no statistically significant activity)					

Second part, the compound before the results:

Structure (SMILES)	chromatographic logP [1]	IC50 (L1210 leukemia cells; [2])	IC50 (L1210 leukemia cells; L1210 leukemia cells, 70 h, cell numbers reduced to 50% of controls, read-out: In vitro L1210 (IC50), cell printed with unit nm)	IC50 (L1210 leukemia cells; L1210, 70 h, read-out: In vitro L1210 (IC50))	P388 in vivo ILS (percentage increase in lifespan) (P388 leukemia)	P388 in vivo Active (P388 leukemia)	LL in vivo ILS (percentage increase in lifespan) (Lewis lung carcinoma)	LL in vivo Active (Lewis lung carcinoma)	LL in vivo number of long-term survivors (Lewis lung carcinoma)	antibacterial activity (bacterial cell lines)	P388 in vivo number of long-term survivors (P388 leukemia)
CN(C)CCNC(=O)c1cccc2ccc(-c3ccccc3)nc12 [Compound 1]	-0.01			1.3 µM	91%	Y (Implies a significant value of drug activity at the stated dose)	70%	Y (Implies a significant value of drug activity at the stated dose)	4	show in vitro activity against a number of bacterial cell lines	
CN(C)CCCCNC(=O)c1cccc2ccc(-c3ccccc3)nc12 [Compound 3]	0.14	0.68 µM			93%	Y (Implies a significant value of drug activity at the stated dose)	148%	Y (Implies a significant value of drug activity at the stated dose)	2		
O=C(NCCNCCO)c1cccc2ccc(-c3ccccc3)nc12 [Compound 5]					< 20%	N (Implies no statistically significant activity)					
CN(C)CCNC(=O)c1cccc2ccc(-c3ccccn3)nc12 [Compound 7]	-1.43	1.64 µM			73%	Y (Implies a significant value of drug activity at the stated dose)	91%	Y (Implies a significant value of drug activity at the stated dose)			3
CN(C)CCNC(=O)c1cccc2ccc(-c3cccnc3)nc12 [Compound 9]	-0.58	0.84 µM			58%	Y (Implies a significant value of drug activity at the stated dose)	52%	Y (Implies a significant value of drug activity at the stated dose)	2		
CN(C)CCNC(=O)c1cccc2ccc(-c3ccncc3)nc12 [Compound 12]	-0.87	0.17 µM			145%	Y (Implies a significant value of drug activity at the stated dose)	132%	Y (Implies a significant value of drug activity at the stated dose)	3	show in vitro activity against a number of bacterial cell lines	2
CN(C)CCNC(=O)c1cccc2ccc(-c3ccc(F)cc3)nc12 [Compound 13]					< 20%	N (Implies no statistically significant activity)					
CN(C)CCNC(=O)c1cccc2ccc(-c3ccc(Cl)cc3)nc12 [Compound 14]	0.05	1.17 µM			52%	Y (Implies a significant value of drug activity at the stated dose)	91%	Y (Implies a significant value of drug activity at the stated dose)	4		
CN(C)CCNC(=O)c1cccc2ccc(-c3ccc(I)cc3)nc12 [Compound 16]					48%	Y (Implies a significant value of drug activity at the stated dose)					
CN(C)CCNC(=O)c1ccc(Cl)c2ccc(-c3ccccc3)nc12 [Compound 25]					63%	Y (Implies a significant value of drug activity at the stated dose)					
CN(C)CCNC(=O)c1cc([N+](=O)[O-])cc2ccc(-c3ccccc3)nc12 [Compound 26]					63%	Y (Implies a significant value of drug activity at the stated dose)					

— US4904659A, “Substituted quinoline derivatives and pharmaceutical compositions thereof” (Development Finance Corporation of New Zeland, priority 1985, dated 1990)
